Each structure is given as a SMILES string.

Here are results for 1 molecule from patent US11980626B2, “Compositions for treatment of breast and prostate cancer” (Kembi Therapeutics Pty Ltd, priority 2017, dated 2024).

Experiment [1] concerns CYP17. Nature of the experiment: Progesterone response in ER+ breast cancer patients. It is filed as in vivo, human. Particulars: vs. patients treated with abiraterone and prednisone (Abi/Pred), FIG. 20. As to the method: Subjects that fulfill the Inclusion Criteria captured in Table 4 were administered seviteronel (600 mg for male subjects, 4×150 mg tablets; 450 mg for female subjects, 3×150 mg tablets) once daily until any of the criteria in Table 2 are met. Table 5 captures the clinical screening data and screening schedule for the various screens for each of the male subjects.
Subjects that fulfill the Inclusion Criteria captured in Table 4 were administered seviteronel (600 mg for male subjects, 4×150 mg tablets; 450 mg for female subjects, 3×150 mg tablets) and dexamethasone (0.5 mg) once daily until any of the criteria in Table 2 are met. Table 5 captures the clinical screening data and screening schedule for the various screens for each of the male subjects.
(§1) Blood samples were collected for evaluation of steroid hormone changes as a pharmacodynamics indicator of CYP17 inhibition over time e.g., DHEA, DHEA-S, androstenedione, testosterone, cortisol, corticosterone, progesterone, pregnenolone, estradiol, estrone and ACTH).

For experiment [2], the system named is CYP17. The experiment is described as follows: Endocrine profile (steroid hormone changes) in prostate cancer patients. It is filed as in vivo, human. To be noted: seviteronel 600 mg once daily, FIG. 7. As to the method:
Males that fulfill the Inclusion Criteria captured in Table 1 were administered seviteronel (600 mg; 4×150 mg tablets) once daily until any of the criteria in Table 2 are met. Table 3 captures the clinical screening data and screening schedule for the various screens for each of the male subjects.
Males that fulfill the Inclusion Criteria captured in Table 1 were administered seviteronel (600 mg; 4×150 mg tablets) and dexamethasone (0.5 mg) once daily until any of the criteria in Table 2 are met. Table 3 captures the clinical screening data and screening schedule for the various screens for each of the male subjects.
as §1

Take `CC(C)C(O)(c1ccc2cc(OC(F)F)c(OC(F)F)cc2c1)c1c[nH]nn1` (centres unmarked) [SEVI, 1-(6,7-Bis(difluoromethoxy)naphthalen-2-yl)-2-methyl-1-(1H-1,2,3-triazol-4-yl)propan-1-ol]: the increase in progesterone entry in the experiment on CYP17 [1] is listed as “lack of clinically relevant increase”. Moreover, in the experiment with CYP17 [2], the “"up-stream" steroids change” value is listed as “limited increase”, the ACTH change result is recorded as “modest ACTH increase”, the androgen change entry was “modest androgen decline” and the cortisol change entry is reported as “modest cortisol decrease”.
